Earlier results, collected in patent publication US20030009042A1, “Method for making hydroxy-25-ene-vitamin D compounds” (Bone Care International, Inc., priority 1998, published 2003).
Where two headings read alike, the source gives them in different places.

Legend:
[1] = oral, 0.5 μg/day, postmenopausal women
[2] = not given; remark: listed apart in the source

| Structure (SMILES) | intestinal calcium absorption and calcium balance [1] | effects on bone mass or mineral content (dosage levels below 0.5 μg/day) | efficacy in preventing or restoring loss of bone mass or bone mineral content (dosage ranges taught in the '596 Patent) | efficacy (bone mass) (1 μg/day, Japan, population with low calcium intake) | efficacy in increasing bone mass (two μg/day, patients exhibiting senile osteoporosis) | toxicity, percentage of the patients ([2]; 1 μg/day) | toxicity, percentage of the patients ([2]; 2 μg/day) |
| --- | --- | --- | --- | --- | --- | --- | --- |
| C=C1/C(=C\C=C2/CCC[C@]3(C)[C@@H]([C@H](C)CCCC(C)(C)O)CC[C@@H]23)C[C@@H](O)C[C@@H]1O [1α,25-dihydroxyvitamin D3] | improved intestinal calcium absorption as well as calcium balance | no effects are observed | at best, modest efficacy |  |  |  |  |
| C=C1/C(=C\C=C2/CCC[C@]3(C)[C@@H]([C@H](C)CCCC(C)C)CC[C@@H]23)C[C@@H](O)C[C@@H]1O [1α-hydroxyvitamin D3] |  |  |  | efficacy is found | found to have efficacy in increasing bone mass | approximately 20% | approximately 67% |
